Measurements published in ChEMBL document CHEMBL1142548, “Time-dependent intracellular trafficking of FITC-conjugated epigallocatechin-3-O-gallate in L-929 cells” (Bioorg Med Chem, 2008).

The molecules below were run on L1210 (assay: Cytotoxicity against mouse L1210 cells after 24 hrs by WST8 assay). Conditions: L1210, 24 h.
Type: functional, cell-based
`O=C1OC2(c3ccc(O)cc3Oc3cc(O)ccc32)c2ccc(N=C=S)cc21` gave an IC50 of 700 µM.
With `O=C(O[C@@H]1Cc2c(O)cc(O)cc2O[C@@H]1c1cc(O)c(O)c(O)c1)c1cc(O)c(O)c(O)c1` [EPIGALOCATECHIN GALLATE] the IC50 was 690 µM.
For `O=C(O[C@@H]1Cc2c(O)cc(O)cc2O[C@@H]1c1cc(O)c(O)c(O)c1)c1cc(O)c(O)c(OC(=S)Nc2ccc3c(c2)C(=O)OC32c3ccc(O)cc3Oc3cc(O)ccc32)c1`, the IC50 was no less than 325 µM.
